For 22 compounds, IC50 results are on record in patent US20260159512A1, “BCAT2 INHIBITORS” (AGIOS PHARMACEUTICALS, INC., priority 2021, published 2026).

The structures appear in SMILES notation. A value given as a limit tells only on which side of the number the result lay.

The test deals with T1, BCAT2 (Homo sapiens, UniProt O15382).
T1 sequence (O15382 28-392): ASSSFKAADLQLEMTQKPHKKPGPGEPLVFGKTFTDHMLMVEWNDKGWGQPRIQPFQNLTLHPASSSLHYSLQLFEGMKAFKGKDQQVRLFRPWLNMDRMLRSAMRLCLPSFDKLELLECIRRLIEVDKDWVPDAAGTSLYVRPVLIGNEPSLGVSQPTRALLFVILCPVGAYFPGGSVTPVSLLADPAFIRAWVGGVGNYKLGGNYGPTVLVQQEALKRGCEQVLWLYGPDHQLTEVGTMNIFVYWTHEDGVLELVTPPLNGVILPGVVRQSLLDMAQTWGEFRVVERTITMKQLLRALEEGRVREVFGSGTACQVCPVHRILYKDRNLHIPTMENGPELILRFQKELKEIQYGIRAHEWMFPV
The test can be described thus: BCAT2 in vitro enzyme inhibition assay (resazurin/diaphorase-coupled fluorescence). As to conditions: average where tested multiple times. It counts as biochemical. The protocol:
BCAT2 In Vitro Enzyme Inhibition Assay
1.67× hBCAT2 Enzyme Mix: 0.33 μg/mL hBCAT2, 1× Buffer
2.5× Substrate Mix: 460 μM L-leucine, 420 μM α-KetoGlutarate, 10 U/mL glutamate dehydrogenase, 10 mM NAD, 30 μg/mL diaphorase, 20 μm Resazurin
BCAT2 enzyme stock solution was diluted to prepare a 1.67× hBCAT2 Enzyme Mix. 1 μL of test compound was first added to the reaction wells followed by 30 μL of 1.67× hBCAT2 Enzyme Mix and incubated at room temperature (25° C.) for one hour. Meanwhile the Substrate Mix was prepared. The reaction was initiated by the addition of 20 μL of the 2.5× Substrate Mix, bringing the final reaction mix of all components to 1×. Reactions were quenched after one hour by the addition of 25 μL of 6% SDS and reaction progress was measured via fluorescence read (Ex 540/Em 590).
Test Compound Preparation:
Test compounds were prepared at 50× final concentration in DMSO, 1 to 3 dilutions were made for 10 points. The compounds were added to the assay as a 1 to 50 dilution (1 μL in 50 μL) to yield a top assay final concentration of 100 μM, decreasing 3-fold for 10 points. Each compound dilution series test also included an assay max (1 μL DMSO Added in lieu of compound, Full Reaction Components Included) and Min (1 μL DMSO Added in lieu of compound, 30 μl of 1.67× hBCAT2 Enzyme Mix replated by 30 μL of 1× Buffer). All tests were performed in technical duplicate.
Where a compound was tested multiple times, the average value of the tests is reported.
As for `CC(C)Cc1nc2cnc(-n3nccn3)cc2n1[C@H]1CCC[C@@H](NC(=O)c2ncc(Cl)s2)[C@@H]1O` [Example 228, 5-chloro-N-((1R,2S,3S)-2-hydroxy-3-(2-isobutyl-6-(2H-1,2,3-triazol-2-yl)-1H-imidazo[4,5-c]pyridin-1-yl)cyclohexyl)thiazole-2-carboxamide], the IC50 (as a rule, the concentration that inhibits the measured activity by half) is over 1000 nM.

`CC(=O)N[C@H](c1nc2cnc(-c3nc[nH]n3)cc2n1[C@@H]1CCC[C@H](NC(=O)c2ncc(Cl)s2)C1)C(C)C` [Example 368, N-((1S,3R)-3-(2-((S)-1-acetamido-2-methylpropyl)-6-(1H-1,2,4-triazol-3-yl)-1H-imidazo[4,5-c]pyridin-1-yl)cyclohexyl)-5-chlorothiazole-2-carboxamide] displayed a concentration for half-maximal inhibition (IC50) of over 1000 nM.

Compound `COCCOc1ccccc1-c1nc2cnc(-c3nc[nH]n3)cc2n1[C@@H]1CCC[C@H](NC(=O)c2ncc(Cl)s2)C1` [Example 464, 5-chloro-N-((1S,3R)-3-(2-(2-(2-methoxyethoxy)phenyl)-6-(1H-1,2,4-triazol-3-yl)-1H-imidazo[4,5-c]pyridin-1-yl)cyclohexyl)thiazole-2-carboxamide] returned an IC50 of at most 100 nM.

On to `CC(C)Cc1nc2cnc(-c3nc[nH]n3)cc2n1[C@H]1C[C@@H](NC(=O)c2ccc(Cl)s2)CC(F)(F)C1` (stereo in doubt) [Example 453, 5-chloro-N-((1R,5S)-3,3-difluoro-5-(2-isobutyl-6-(1H-1,2,4-triazol-3-yl)-1H-imidazo[4,5-c]pyridin-1-yl)cyclohexyl)thiophene-2-carboxamide], for which the IC50 was in the range of 100 to 500 nM.

`CO[C@@H]1C[C@@H](NC(=O)c2ccc(Cl)s2)C[C@@H](n2c(CC(C)C)nc3cnc(-c4ncccn4)cc32)C1` (single isomer, unassigned) [Example 438]: the IC50 is 100 to 500 nM.

Take `COC(=O)O[C@@H]1[C@@H](NC(=O)c2ncc(Cl)s2)CCC[C@H]1n1c(-c2ccccc2F)nc2cnc(-c3nc[nH]n3)cc21` [Example 447, (1R,2S,6R)-2-(5-chlorothiazole-2-carboxamido)-6-(2-(2-fluorophenyl)-6-(1H-1,2,4-triazol-3-yl)-1H-imidazo[4,5-c]pyridin-1-yl)cyclohexyl methyl carbonate]: the IC50 lay within 100 to 500 nM.

Compound `CS(=O)(=O)O[C@@H]1[C@@H](NC(=O)c2ncc(Cl)s2)CCC[C@H]1n1c(-c2ccccc2F)nc2cnc(-c3nc[nH]n3)cc21` [Example 448, (1R,2S,6R)-2-(5-chlorothiazole-2-carboxamido)-6-(2-(2-fluorophenyl)-6-(1H-1,2,4-triazol-3-yl)-1H-imidazo[4,5-c]pyridin-1-yl)cyclohexyl methanesulfonate] showed an IC50 of 500 to 1000 nM.

On to `O=C(NC1COCC(n2c(-c3ccccn3)nc3cnc(-n4ccnn4)cc32)C1)c1ncc(C(F)F)s1` (single isomer, unassigned) [Example 147, 5-(difluoromethyl)-N-(5-(2-(pyridin-2-yl)-6-(1H-1,2,3-triazol-1-yl)-1H-imidazo[4,5-c]pyridin-1-yl)tetrahydro-2H-pyran-3-yl)thiazole-2-carboxamide], for which the IC50 was over 1000 nM.

Turning to `COC[C@@H]1CCCN1c1cc2c(cn1)nc(-c1ccccc1F)n2[C@@H]1CCC[C@H](NC(=O)c2ncc(Cl)s2)C1` [Example 197, 5-chloro-N-((1S,3R)-3-(2-(2-fluorophenyl)-6-((S)-2-(methoxymethyl)pyrrolidin-1-yl)-1H-imidazo[4,5-c]pyridin-1-yl)cyclohexyl)thiazole-2-carboxamide], the concentration for half-maximal inhibition (IC50) is over 1000 nM.

Compound `O=C(N[C@H]1CCC[C@@H](n2c(C3CNCCO3)nc3cnc(-c4nc[nH]n4)cc32)C1)c1ncc(Cl)s1` (stereo partly drawn) [Example 174, 5-chloro-N-((1S,3R)-3-(2-(morpholin-2-yl)-6-(1H-1,2,4-triazol-3-yl)-1H-imidazo[4,5-c]pyridin-1-yl)cyclohexyl)thiazole-2-carboxamide] gave an IC50 of over 1000 nM.

`CC(C)Cc1nc2cnc(-c3nc[nH]n3)cc2n1[C@@H]1CCC[C@H](NC(=O)c2ncc(Cl)s2)[C@@H]1O` [Example 408, 5-chloro-N-((1S,2S,3R)-2-hydroxy-3-(2-isobutyl-6-(1H-1,2,4-triazol-3-yl)-1H-imidazo[4,5-c]pyridin-1-yl)cyclohexyl)thiazole-2-carboxamide] registered an IC50 of at most 100 nM.

With `CN(C)Cc1ccccc1-c1nc2cnc(-c3nc[nH]n3)cc2n1[C@@H]1CCC[C@H](NC(=O)c2ncc(Cl)s2)C1` [Example 375, 5-chloro-N-((1S,3R)-3-(2-(2-((dimethylamino)methyl)phenyl)-6-(1H-1,2,4-triazol-3-yl)-1H-imidazo[4,5-c]pyridin-1-yl)cyclohexyl)thiazole-2-carboxamide], the IC50 was in the range of 500 to 1000 nM.

`CO[C@@H]1C[C@@H](NC(=O)c2ncc(Cl)s2)C[C@@H](n2c(CC(C)C)nc3cnc(-c4nc(C)co4)cc32)C1` [Example 410, 5-chloro-N-((1S,3R,5R)-3-(2-isobutyl-6-(4-methyloxazol-2-yl)-1H-imidazo[4,5-c]pyridin-1-yl)-5-methoxycyclohexyl)thiazole-2-carboxamide]: the concentration for half-maximal inhibition (IC50) was over 1000 nM.

For the compound `CC(C)Cc1nc2cnc(-c3ccn[nH]3)cc2n1[C@H]1CCC[C@@H](NC(=O)c2ncc(Cl)s2)[C@@H]1O` [Example 226, 5-chloro-N-((1R,2S,3S)-2-hydroxy-3-(2-isobutyl-6-(1H-pyrazol-5-yl)-1H-imidazo[4,5-c]pyridin-1-yl)cyclohexyl)thiazole-2-carboxamide], the IC50 was over 1000 nM.

`CC(O)Cc1nc2cnc(-c3ccccn3)cc2n1[C@@H]1CCC[C@H](NC(=O)c2ncc(Cl)s2)C1` (stereo partly drawn) [Example 360, 5-chloro-N-((1S,3R)-3-(2-(2-hydroxypropyl)-6-(pyridin-2-yl)-1H-imidazo[4,5-c]pyridin-1-yl)cyclohexyl)thiazole-2-carboxamide]: the IC50 is over 1000 nM.

`C[C@H]1CCCN1c1cc2c(cn1)nc(-c1ccccc1F)n2[C@@H]1CCC[C@H](NC(=O)c2ncc(Cl)s2)C1` [Example 194, 5-chloro-N-((1S,3R)-3-(2-(2-fluorophenyl)-6-((S)-2-methylpyrrolidin-1-yl)-1H-imidazo[4,5-c]pyridin-1-yl)cyclohexyl)thiazole-2-carboxamide] had an IC50 of 500 to 1000 nM.

`CC(C)Cc1nc2cnc(-n3cc(F)cn3)cc2n1[C@H]1C[C@H](O)C[C@@H](NC(=O)c2ncc(Cl)s2)C1` [Example 222, 5-chloro-N-((1S,3R,5R)-3-(6-(4-fluoro-1H-pyrazol-1-yl)-2-isobutyl-1H-imidazo[4,5-c]pyridin-1-yl)-5-hydroxycyclohexyl)thiazole-2-carboxamide] gave an IC50 of over 1000 nM.

As to `N#C[C@H]1[C@@H](NC(=O)c2ncc(Cl)s2)CCC[C@H]1n1c(-c2ccccc2F)nc2cnc(-c3nc[nH]n3)cc21` [Example 452, 5-chloro-N-((1S,2S,3R)-2-cyano-3-(2-(2-fluorophenyl)-6-(1H-1,2,4-triazol-3-yl)-1H-imidazo[4,5-c]pyridin-1-yl)cyclohexyl)thiazole-2-carboxamide], the IC50 is over 1000 nM.

Consider `O=C(N[C@H]1CCC[C@@H](n2c(-c3ccccc3OCCO)nc3cnc(-c4nc[nH]n4)cc32)C1)c1ncc(Cl)s1` [Example 382, 5-chloro-N-((1S,3R)-3-(2-(2-(2-hydroxyethoxy)phenyl)-6-(1H-1,2,4-triazol-3-yl)-1H-imidazo[4,5-c]pyridin-1-yl)cyclohexyl)thiazole-2-carboxamide], for which the IC50 was at most 100 nM.

As for `[N-]=[N+]=N[C@H]1[C@@H](NC(=O)c2ncc(Cl)s2)CCC[C@H]1n1c(-c2ccccc2F)nc2cnc(-c3nc[nH]n3)cc21` [Example 450, N-((1S,2S,3R)-2-azido-3-(2-(2-fluorophenyl)-6-(1H-1,2,4-triazol-3-yl)-1H-imidazo[4,5-c]pyridin-1-yl)cyclohexyl)-5-chlorothiazole-2-carboxamide], the IC50 is over 1000 nM.

`CC(C)Cc1nc2cnc(-c3ncc[nH]3)cc2n1[C@@H]1CCC[C@H](NC(=O)c2ncc(Cl)s2)C1` [Example 361, N-((1S,3R)-3-(6-(1H-imidazol-2-yl)-2-isobutyl-1H-imidazo[4,5-c]pyridin-1-yl)cyclohexyl)-5-chlorothiazole-2-carboxamide] registered a 50% inhibitory concentration (IC50) of at most 100 nM.

In turn, `CS(=O)(=O)N1C[C@@H](NC(=O)c2ncc(Cl)s2)C[C@@H](n2c(-c3ccccc3F)nc3cnc(-c4nc[nH]n4)cc32)C1` [Example 461, 5-chloro-N-((3S,5R)-5-(2-(2-fluorophenyl)-6-(1H-1,2,4-triazol-3-yl)-1H-imidazo[4,5-c]pyridin-1-yl)-1-(methylsulfonyl)piperidin-3-yl)thiazole-2-carboxamide] came in with an IC50 of at most 100 nM.
